Results published in patent US11696938B2, “Human cancer cell metastasis inhibitory agent and human cancer cell determination agent” (priority 2017, dated 2023).

What was measured:
[1] = tested on: OV2944 cells; assay: Cell invasion assay (Matrigel Invasion Chamber); format: cell-based, mouse; details: for cell invasion, ranking of suppression: 8 μM each, versus 10 μM BSA
Protocol: (§1) Cell invasion was analyzed using a BD BioCoat (registered trademark) Matrigel Invasion Chamber (Becton, Dickinson and Company). First, a certain amount of cells (about 1×10^5 cells/well) were treated with 2 μM, 8 μM, or 20 μM mouse dicalcin at room temperature for 20 minutes.
(§2) The treated cells were washed by centrifugation treatment, and then plated in the upper chamber of a transwell preliminarily coated with Matrigel, followed by performing culture using DMEM (+10% FBS) as a medium.
(§3) About 16 hours later, the invading cells that had migrated into the lower chamber were fixed using 4% paraformaldehyde/phosphate buffer at room temperature for 10 minutes, and then stained with crystal violet, followed by excision of the membrane, embedding on a slide, and counting of the cell number.

[2] = tested on: OV2944 cells; assay: Cell binding experiment (fluorescently labeled protein/peptide, confocal microscope); set-up: species or system mouse; details: for cell-binding ability (fluorescence intensity): 5 μM rhodamine-labeled partial peptides, ranking
Protocol: The OV2944-HM-1 cell line (which may be referred to as “OV2944 cells” or, simply, “cells”), which is a commonly used cell line, was used. OV2944 cells were obtained from RIKEN BioResource Center (Cell No. RCB1483), and cultured in DMEM medium (+10% FBS) according to a conventional method.
Cultured cells were fixed on a glass plate (4% paraformaldehyde/phosphate buffer, room temperature, 10 minutes), and treated with sheep serum. Thereafter, mouse dicalcin (5 μM) fluorescently labeled with tetramethylrhodamine (TMR) was reacted with the cells in the presence of 1 mM CaCl2 (4° C., overnight). After washing with TBS buffer, analysis was carried out using a confocal microscope (Carl Zeiss). Further, cell nuclei were stained with DAPI.
An experiment was carried out in the same manner as in Experimental Example 1-1 except that the reaction was carried out in the presence of 1 mM EGTA (which may be referred to as “in the absence of calcium”).
An experiment was carried out in the same manner as in Experimental Example 1-1 except that immunostaining was carried out using an anti-mouse dicalcin antibody (Catalog No. MAB5167, R&D Systems) as a primary antibody, and an Alexa Fluor (registered trademark) 594-labeled anti-rat IgG antibody (Catalog No. A11007, Invitrogen) as a secondary antibody.
An experiment was carried out in the same manner as in Experimental Example 1-1 except that each of partial peptides p1 to p7 (5 μM) fluorescently labeled with rhodamine was used.

[3] = tested on: OVCAR cells; assay: Cell invasion assay; format: cell-based, human
Protocol: as §1, §2
as §3, with “number. The invasion index was calculated as {(number of stained cells)/(number of plated cells)}×100(%), and normalized by the later-mentioned result of Experimental Example 2-2, which was taken as 100(%).” for “number.”
The OVCAR-3 cell line (which may be referred to as “OVCAR cells” or, simply, “cells”), which is a commonly used cell line, was used. OVCAR cells were obtained from RIKEN BioResource Center (Cell No. RCB2135), and cultured in DMEM medium (+10% FBS) according to a conventional method. This line is a human ovarian cancer (adenocarcinoma)-derived cell line.
An analysis was carried out in the same manner as in Experimental Example 2-1 except that OVCAR cells were used as the cells, and that 8 μM or 20 μM human dicalcin was used instead of mouse dicalcin.
An analysis was carried out in the same manner as in Experimental Example 9-1 except that 20 μM BSA was used instead of human dicalcin.
An analysis was carried out in the same manner as in Experimental Example 2-1 except that OVCAR cells were used as the cells, and that 2 μM or 10 μM hDC-p6 was used as a partial peptide. Statistical analysis was carried out by unpaired Student t-test in order to analyze a significant difference.

[4] = tested on: human cancer tissues; assay: Cell binding experiment on paraffin sections of human cancer tissues
Protocol: After washing, analysis was carried out using a fluorescence microscope (Olympus Corporation).
An experiment was carried out in the same manner as in Experimental Example 15-1 except that a paraffin section derived from a human prostate cancer tissue (US Biomax Inc.) was used as a target.
An experiment was carried out in the same manner as in Experimental Example 15-1 except that a paraffin section derived from a human colorectal (colon) cancer tissue (US Biomax Inc.) was used as a target. The white dotted line indicates the border between the tumor area and the normal area.
An experiment was carried out in the same manner as in Experimental Example 15-1 except that a paraffin section derived from a human colorectal (rectal) cancer tissue (US Biomax Inc.) was used as a target. The white dotted line indicates the border between the tumor area and the normal area.
An experiment was carried out in the same manner as in Experimental Example 15-1 except that a paraffin section derived from a human breast cancer (breast ductal carcinoma) tissue (US Biomax Inc.) was used as a target.
An experiment was carried out in the same manner as in Experimental Example 15-1 except that a paraffin section derived from a human breast cancer (invasive lobular carcinoma) tissue (US Biomax Inc.) was used as a target. […]

[5] = tested on: PC-3 cells; assay: Cell invasion assay; format: cell-based, human; details: 10 μM; control hDC-p1 10 μM
Protocol: as §1, §2
as §3, with “number. The invasion index was calculated as {(number of stained cells)/(number of plated cells)}×100(%), and normalized by the later-mentioned result of Experimental Example 2-2, which was taken as 100(%).” for “number.”
An analysis was carried out in the same manner as in Experimental Example 2-1 except that PC-3 cells were used as the cells, and that 10 μM hDC-p6 was used as a partial peptide. Statistical analysis was carried out by unpaired Student t-test in order to analyze a significant difference.

[6] = tested on: OVCAR cells; assay: Cell binding experiment; set-up: species or system human; details: 5 μM rhodamine-labeled; calcium absent; control p1
[7] = tested on: PC-3 cells; assay: Cell binding experiment; set-up: species or system human; details: 5 μM rhodamine-labeled; calcium absent; control hDC-p1
Excerpt: The PC-3 cell line (which may be referred to as “PC-3 cells” or, simply, “cells”), which is a commonly used cell line, was used. PC-3 cells were obtained from RIKEN BioResource Center (Cell No. RCB2145), and cultured in DMEM medium (+10% FBS) according to a conventional method. This line is a human prostate cancer-derived cell line.

[8] = tested on: OV2944 cells; assay: Analysis of survival after cell transfer (Kaplan Meier); format: in vivo, mouse; details: intraperitoneal, 3 nmoles/two days
Protocol: The purified OV2944 cells expressing the fluorescent protein tdTomato were transferred into the abdominal cavity of mice (B6C3F1 strain, 9 weeks old, female, CLEA Japan, Inc.) (1×10^5 cells/mouse). […] On Day 21, the abdominal organs were removed, and OV2944 cells expressing the fluorescent protein tdTomato in the liver were observed using a fluorescence stereomicroscope OV110 (Olympus Corporation).
Intraperitoneal injection was carried out in the same manner as in Experimental Example 13-1 and Experimental Example 13-2, and survival analysis was carried out thereafter to provide Experimental Example 14-1 and Experimental Example 14-2. For the survival curve according to the Kaplan Meier method, a significant difference was analyzed by log-rank test.

[9] = tested on: OV2944 cells; assay: Cell adhesion assay (Matrigel); format: cell-based, mouse; details: 8 or 20 μM
Protocol: First, a certain amount of cells (about 1×10^5 cells/well) were treated with 8 μM or 20 μM mouse dicalcin at room temperature for 20 minutes. After coating a 24-well plate with, and allowing gelation of, BD Matrigel (registered trademark) (Becton, Dickinson and Company), the pretreated cells were washed and plated therein.
About 1 hour later, nonadherent cells were aspirated. After washing, adherent cells were fixed using 4% paraformaldehyde/phosphate buffer at room temperature for 10 minutes, and then stained with crystal violet, followed by counting of the cell number. The adhesion index was calculated as {(number of stained cells)/(number of plated cells)}×100(%). Normalization was carried out by the later-mentioned result of Experimental Example 3-2, which was taken as 100(%).
An experiment was carried out in the same manner as in Experimental Example 3-1 except that mouse dicalcin was not added.
An experiment was carried out in the same manner as in Experimental Example 3-1 except that 10 μM BSA was used instead of mouse dicalcin.

[10] = tested on: OV2944 cells; assay: Cell survival assay (crystal violet); format: cell-based, mouse; details: 20 μM; versus 10 μM BSA
Protocol: (§4) First, a certain amount of cells (about 1×10^5 cells/well) were treated with 20 μM mouse dicalcin at room temperature for 20 minutes. The cells were then washed and aliquoted into a 96-well plate, followed by performing culture. One hour later, after washing with PBS buffer, the cells were fixed using 4% paraformaldehyde/phosphate buffer at room temperature for 10 minutes. The cells were then stained with crystal violet and solubilized, followed by measuring the absorbance (measurement wavelength, 550 nm) in order to analyze the cell survival rate. The cell survival rate was calculated as {(number of stained cells)/(number of plated cells)}×100(%). Normalization was carried out by the later-mentioned result of Experimental Example 4-2, which was taken as 100(%).
An experiment was carried out in the same manner as in Experimental Example 4-1 except that 10 μM BSA was used instead of mouse dicalcin.

[11] = tested on: OVCAR cells; assay: Cell survival assay; format: cell-based, human; details: 20 μM; versus 10 μM BSA
Protocol: as §4
An experiment was carried out in the same manner as in Experimental Example 4-1 except that OVCAR cells were used as the cells, and that 20 μM human dicalcin was used instead of mouse dicalcin.
An experiment was carried out in the same manner as in Experimental Example 10-1 except that 10 μM BSA was used instead of human dicalcin.

p2: partial peptide of mouse dicalcin, SEQ ID NO: 13, SLIAVFQKY (listed as Mus musculus)
cell invasion, ranking of suppression [1]: followed by p2, p′7, and p5 in this order
cell-binding ability (fluorescence intensity) [2]: second highest cell-binding ability

p7: partial peptide of mouse dicalcin, SEQ ID NO: 18, GGLAIACHDSFIQTSQKRI (listed as Mus musculus)
cell invasion, ranking of suppression [1]: followed by p2, p′7, and p5 in this order
cell-binding ability (fluorescence intensity) [2]: second highest cell-binding ability

hDC-p6: partial peptide of human dicalcin, SEQ ID NO: 7, QLDFSEFLNLI (listed as Homo sapiens)
cell invasion (invasion index) ([3]; 2 or 10 μM, control peptide p1 10 μM): suppresses cell invasion in a concentration-dependent manner
binding to cancer cells of tissue sections ([4]; 5 μM, 4° C. overnight, ovarian, prostate, colon, rectal, breast (4 types), renal, lung, glioma): binds to cancer cells of any of these tissues
determination of tumor area by fluorescence positive reaction ([4]; colon cancer section, blocking and peptide reaction together, 37° C., 1 hour): tumor area could be determined
cell invasion (invasion index) [5]: suppresses cell invasion
binding to the cells (fluorescence intensity) [6]: binds to the cells
binding to the cells (fluorescence intensity) [7]: binds to the cells

p4: partial peptide of mouse dicalcin, SEQ ID NO: 15, MNTELAAFTKNQKDPGVLDR (listed as Mus musculus)
cell-binding ability (fluorescence intensity) [2]: third highest cell-binding ability

p5: partial peptide of mouse dicalcin, SEQ ID NO: 16, MMKKLDLNCDG (listed as Mus musculus)
cell invasion, ranking of suppression [1]: followed by p2, p′7, and p5 in this order
cell-binding ability (fluorescence intensity) [2]: second highest cell-binding ability

p1: partial peptide of mouse dicalcin, SEQ ID NO: 12, PTETERCIE; used as control peptide (listed as Mus musculus)
average number of days of survival [8]: 32 days

B1: mouse dicalcin: recombinant full-length mouse dicalcin (S100A11), SEQ ID NO:11, expressed in E. coli (protein, listed as Mus musculus)
chain: PTETERCIESLIAVFQKYSGKDGNNTQLSKTEFLSFMNTELAAFTKNQKDPGVLDRMMKKLDLNCDGQLDFQEFLNLIGGLAIACHDSFIQTSQKRI
cell adhesion (adhesion index) [9]: suppresses the cell adhesion in a concentration-dependent manner
cell invasion (invasion index) ([1]; 2, 8 or 20 μM, normalized to 10 μM BSA): suppresses the cell invasion in a concentration-dependent manner
binding to the cells (fluorescence) ([2]; 5 μM TMR-labeled, 1 mM CaCl2 versus 1 mM EGTA): larger amount of mouse dicalcin binds to the cells in the presence of calcium
cell survival rate [10]: does not affect the survival of the cells

B2: human dicalcin: recombinant full-length human dicalcin (S100A11), SEQ ID NO:1 (protein, listed as Homo sapiens)
chain: AKISSPTETERCIESLIAVFQKYAGKDGYNYTLSKTEFLSFMNTELAAFTKNQKDPGVLDRMMKKLDTNSDGQLDFSEFLNLIGGLAMACHDSFLKAVPSQKRT
invasion index ([3]; 20 μM, normalized to BSA as 100%): 43.9%
cell invasion (invasion index) ([3]; 8 or 20 μM human dicalcin, versus 20 μM BSA): suppresses the cell invasion in a concentration-dependent manner
cell survival rate [11]: does not affect the survival of the cells
